“And” between values parts separate entries of the source, which are not always exact repeats. Identical values can stand only once. Numbers after ± are expanded uncertainties.
Legend:
[1] = Liquid; for mass density: Vibrating tube method
[2] = xn = mol fraction of the nth substance listed; conditions: 101 kPa, Liquid, x2 = 0; for mass density: Vibrating tube method
[3] = 293.15 K, 101.33 kPa, Capillary tube (Ostwald / Ubbelohde) method
[4] = 303.15 K, 101.33 kPa, Capillary tube (Ostwald / Ubbelohde) method
[5] = 313.15 K, 101.33 kPa, Capillary tube (Ostwald / Ubbelohde) method
[6] = 323.15 K, 101.33 kPa, Capillary tube (Ostwald / Ubbelohde) method
[7] = 333.15 K, 101.33 kPa, Capillary tube (Ostwald / Ubbelohde) method

Row | Compound | viscosity ([1]; 293.15 K, 101 kPa) | mass density ([1]; 293.15 K, 101 kPa) [kg/m3] | viscosity [1, 3] [mPa·s] | mass density ([1]; 293.15 K, 101.33 kPa) [kg/m3] | viscosity ([1]; 303.15 K, 101 kPa) [mPa·s] | viscosity [1, 4] [mPa·s] | mass density ([1]; 303.15 K, 101.33 kPa) [kg/m3] | viscosity ([1]; 313.15 K, 101 kPa) [mPa·s] | viscosity [1, 5] [mPa·s] | mass density ([1]; 313.15 K, 101.33 kPa) [kg/m3] | viscosity ([1]; 323.15 K, 101 kPa) [mPa·s] | viscosity [1, 6] [mPa·s] | mass density ([1]; 323.15 K, 101.33 kPa) [kg/m3] | viscosity ([1]; 333.15 K, 101 kPa) | viscosity [1, 7] [mPa·s] | mass density ([1]; 333.15 K, 101.33 kPa) [kg/m3] | mass density ([2]; 293.15 K) [kg/m3] | viscosity ([2]; 293.15 K) [mPa·s] | mass density ([2]; 303.15 K) [kg/m3] | viscosity ([2]; 303.15 K) [mPa·s] | also measured
1 | CC(C)CO [2-methyl-1-propanol] | 4.197 ± 0.23 mPa·s | 801.8 ± 0.2 | 4.085 ± 0.025 | 801.75 ± 0.24 | 2.873 ± 0.16 | 2.877 ± 0.018 | 793.99 ± 0.24 | 1.926 ± 0.11 | 2.091 ± 0.013 | 786.04 ± 0.24 | 1.232 ± 0.074 | 1.576 ± 0.01 | 777.85 ± 0.24 | 0.665 ± 0.044 mPa·s | 1.124 ± 0.007 | 769.36 ± 0.24 | – | – | – | – | –
2 | CC(C)CO [2-methyl-1-propanol] + NCCCO | – | – | – | – | – | – | – | – | – | – | – | – | – | – | – | – | 801.8 ± 0.2 | 4.197 ± 0.23 | 793.99 ± 0.24 | 2.873 ± 0.16 | mass density ([2]; 313.15 K): 786.04 ± 0.24 kg/m3; viscosity ([2]; 313.15 K): 1.926 ± 0.11 mPa·s; mass density ([2]; 323.15 K): 777.85 ± 0.24 kg/m3; viscosity ([2]; 323.15 K): 1.232 ± 0.074 mPa·s; mass density ([2]; 333.15 K): 769.36 ± 0.24 kg/m3
3 | NCCCO [3-amino-1-propanol] | 40.45 ± 1.7 mPa·s and 40.46 ± 1.7 mPa·s | 987.65 ± 0.29 | 40.42 ± 0.2 | 987.55 ± 0.21 | 23.98 ± 1 | 23.87 ± 0.12 | 979.53 ± 0.22 | 15.31 ± 0.68 | 15.27 ± 0.078 | 971.47 ± 0.22 | 10.22 ± 0.48 | 10.22 ± 0.054 | 963.37 ± 0.22 | 6.961 ± 0.35 mPa·s and 6.962 ± 0.35 mPa·s | 7.123 ± 0.04 | 955.22 ± 0.22 | – | – | – | – | mass density ([1]; 303.15 K, 101 kPa): 979.65 ± 0.29 kg/m3; mass density ([1]; 313.15 K, 101 kPa): 971.61 ± 0.29 kg/m3; mass density ([1]; 323.15 K, 101 kPa): 963.52 ± 0.29 kg/m3; mass density ([1]; 333.15 K, 101 kPa): 955.38 ± 0.29 kg/m3
4 | CC(C)O [propan-2-ol] | 2.318 ± 0.13 mPa·s | 785.36 ± 0.24 | 2.362 ± 0.015 | 785.25 ± 0.24 | 1.596 ± 0.094 | 1.769 ± 0.011 | 776.78 ± 0.24 | 0.996 ± 0.062 | 1.33 ± 0.0086 | 767.98 ± 0.24 | – | 1.014 ± 0.0068 | 758.82 ± 0.25 | – | – | 749.2 ± 0.25 | – | – | – | – | mass density ([1]; 303.15 K, 101 kPa): 776.87 ± 0.24 kg/m3; mass density ([1]; 313.15 K, 101 kPa): 768.07 ± 0.24 kg/m3; mass density ([1]; 323.15 K, 101 kPa): 758.89 ± 0.24 kg/m3; mass density ([1]; 333.15 K, 101 kPa): 749.25 ± 0.25 kg/m3
5 | CC(C)O [propan-2-ol] + NCCCO | – | – | – | – | – | – | – | – | – | – | – | – | – | – | – | – | 785.36 ± 0.24 | 2.318 ± 0.13 | 776.87 ± 0.24 | 1.596 ± 0.094 | mass density ([2]; 313.15 K): 768.07 ± 0.24 kg/m3; viscosity ([2]; 313.15 K): 0.996 ± 0.062 mPa·s; mass density ([2]; 323.15 K): 758.89 ± 0.24 kg/m3; mass density ([2]; 333.15 K): 749.25 ± 0.25 kg/m3

Source: the NIST ThermoML archive (doi:10.1016/j.jct.2012.02.036)
